Values of other authors, collected in US20230285278A1, “METHODS FOR TREATING CHRONIC RHINOSINUSITIS” (OptiNose, Inc., priority 2022, published 2023).
Like-named read-outs stand apart in the source and are kept apart here.

CCC(=O)O[C@]1(C(=O)SCF)[C@H](C)C[C@H]2[C@@H]3C[C@H](F)C4=CC(=O)C=C[C@]4(C)[C@@]3(F)[C@@H](O)C[C@@]21C [Fluticasone propionate, S-(fluoromethyl) 6α,9-difluoro-11β,17-dihydroxy-16α-methyl-3oxoandrosta-1,4-diene-17β-carbothioate, 17-propionate]
Solubility (in 96% ethanol): slightly soluble
Solubility (in acetone): sparingly soluble
Solubility (in dichloromethane): sparingly soluble
Solubility (in dimethylformamide): freely soluble
Solubility (in water): practically insoluble
